# Data from patent US5585385A, “Heterocyclic compounds, their production and use as tachykinin reactor antagonists” (Takeda Chemical Industries, Ltd., priority 1993, dated 1996).
# What was measured:
# substance P receptor = target: T1, substance P receptor (Homo sapiens, UniProt P25103); test: Radioligand receptor binding inhibitory activity using receptor from human lymphoblast cells (IM-9), 125I-BHSP; settings: human IM-9 cell receptor, 25° C., 30 minutes, pH 7.4, n=1
# T1 construct: The receptor was prepared from human lymphoblast cells (IM-9); endogenous in cells; host or cells: IM-9 human lymphoblast cells (crude membrane preparation)
# Procedure: Radioligand receptor binding inhibitory activity
# Binding inhibitory activity using receptor from human lymphoblast cells (IM-9)
# The method of A. Margaret "Molecular Pharmacology 42, p.458 (1992)" was modified and used. The receptor was prepared from human lymphoblast cells (IM-9). IM-9 cells (2×10^5 cells/ml) were inoculated and incubated for 3 days (one liter), which was then subjected to centrifuge for 5 minutes at 500×g to obtain cell pellets. The pellets were washed once with phosphate buffer (Flow Laboratories, CAT. No. 28-103-05), which were then crushed using Polytron.homogenizer "Kinematika, Germany" in 30 ml of 50 mM Tris-HCl buffer (pH 7.4) containing 120 mM sodium chloride, 5 mM potassium chloride, 2 μg/ml chymostatin, 40 μg/ml bacitracin, 5 μg/ml phosphoramidon, 0.5 mM phenylmethyl sulfonyl fluoride, 1 mM ethylenediamine tetra-acetic acid, which was subjected to centrifuge at 40,000×g for 20 minutes. The residue was washed twice with 30 ml of the above-mentioned buffer, which was then preserved frozen (-80° C.) as a specimen of the receptor.
# The specimen was suspended in a reaction buffer (50 mM Tri-HCl buffer (pH 7.4), 0.02% bovine serum albumin, 1 mM phenylmethylsulfonyl fluoride, 2 μg/chymostatin, 40 μg/ml bacitracin, 3 mM manganese chloride) and 100 ul portion was the suspension was used in the reaction. After addition of the sample and ^125 I-BHSP (0.46 KBq), the reaction was allowed to proceed in 0.2 ml of reaction buffer at 25° C. for 30 minutes. The amount of nonspecific binding was determined by adding substance P at a final concentration of 2×10^-6 M. After the reaction, using a cell harvester (290 PHD, Cambridge Technology, Inc, U.S.A.), rapid filtration was carried out through a glass filter (GF/B, Whatman, U.S.A.) to stop the reaction. After washing three times with 250 ul of 50 mM of Tris-HCl buffer (pH 7.4) containing 0.02% bovine serum albumin, the radioactivity remaining on the filter was determined with a gamma counter. Before use, the filter was immersed in 0.1% polyethyleneimine for 24 hours and air-dried. […] (Radioligand means substance P labelled with ^125 I.) The number of this experiment is one.
# [1] = tested on: plasma extravasation induced by capsaicin in trachea; test: Inhibitory effect on plasma extravasation induced by capsaicin in trachea of guinea pigs; type: in vivo, guinea pigs (Hartley type white male); settings: Cavia porcellus, iv, 5 min, 5 min before capsaicin (150 μg/kg i.v.), guinea pig trachea, n=6; for inhibition in vivo at 0.03 mg/kg: 0.03 mg/kg i.v.; for inhibition in vivo at 0.1 mg/kg: 0.1 mg/kg i.v.
# Procedure: Inhibitory effect on plasma extravasation induced by capsaicin in trachea of guinea pigs
# Guinea pigs (Hartley type white male guinea pigs), (n=6) were anesthetized with 35 mg/kg of pentobarbital injected intraperitoneally (i.p.), then test compounds were administered intravenously (i.v.). After 5 minutes, a mixed solution of capsaicin (150 μg/kg) and Evans' blue dye (20 mg/kg) was administered intravenously to cause reaction. Ten minutes later, test animals were sacrificed by cutting the aorta, then perfused through pulmonary artery with 50 ml of physiological saline. The trachea was excised, and its wet weight was measured. The trachea was incubated at room temperature in 1 ml of acetone-0.3% sodium sulfate (7:3) overnight and Evans' blue dye was extracted from the trachea. The extract solution was centrifuged at 2800 rpm for 5 minutes. The amount of Evans' blue dye in the supernatant was quantified by measuring absorbance at […].
# Plasma extravasation was expressed in terms of the amount of Evans' blue dye (μg) relative to the weight of the trachea (g). The efficacy of the drug was evaluated by calculating the % inhibition in accordance with the following formula. [formula] A: the amount of Evan's blue dye (μg/g) in each test animal B: the mean amount of Evan's blue dye (μg/g) of the group untreated with capsaicin.
# C: the mean amount of Evan's blue dye (μg/g) of control group
# T1 sequence (P25103 whole entry): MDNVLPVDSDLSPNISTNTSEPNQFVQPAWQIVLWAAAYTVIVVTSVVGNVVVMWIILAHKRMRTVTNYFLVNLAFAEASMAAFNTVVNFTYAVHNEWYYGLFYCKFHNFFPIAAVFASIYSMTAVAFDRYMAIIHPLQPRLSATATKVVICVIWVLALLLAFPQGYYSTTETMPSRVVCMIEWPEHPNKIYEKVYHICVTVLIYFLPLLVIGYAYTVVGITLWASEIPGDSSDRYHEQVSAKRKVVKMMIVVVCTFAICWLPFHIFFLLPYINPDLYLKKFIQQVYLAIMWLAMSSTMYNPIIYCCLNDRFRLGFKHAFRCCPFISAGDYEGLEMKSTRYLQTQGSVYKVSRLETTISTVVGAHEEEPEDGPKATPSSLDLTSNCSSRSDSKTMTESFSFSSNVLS
Compound,IC50 (substance P receptor) [nM],inhibition in vivo at 0.03 mg/kg [1] [%],inhibition in vivo at 0.1 mg/kg [1] [%]
"CN(Cc1cc(C(F)(F)F)cc(C(F)(F)F)c1)C(=O)c1c(-c2ccc(F)cc2)c2cccnc2c(=O)n1C [Example 1, N-[3,5-Bis(trifluoromethyl)benzyl]-5-(4-fluorophenyl)-7,8-dihydro-N, 7-dimethyl-8-oxo-6-pyrido[3,4-b]pyridine carboxamide]",0.08,76.1,
"CN(Cc1cc(C(F)(F)F)cc(C(F)(F)F)c1)C(=O)c1c(-c2ccc(F)cc2)c2nccnc2c(=O)n1C [Example 7, N-[3,5-Bis(trifluoromethyl)benzyl]-8-(4-fluorophenyl)-5,6-dihydro-N, 6-dimethyl-5-oxo-7-pyrido[3,4-b]pyrazine carboxamide]",0.2,,71.9
"CN(Cc1cc(C(F)(F)F)cc(C(F)(F)F)c1)C(=O)c1c(-c2ccc(F)cc2)c2ccncc2c(=O)n1C [Example 8, N-[3,5-Bis(trifluoromethyl)benzyl]-4-(4-fluorophenyl)-1,2-dihydro-N, 2-dimethyl-1-oxo-3-pyrido[3,4-c]pyridine carboxamide]",0.17,,64.9
"CN(Cc1cc(C(F)(F)F)cc(C(F)(F)F)c1)C(=O)c1c(-c2ccc(F)cc2)c2ccsc2c(=O)n1C [Example 13, N-[3,5-Bis(trifluoromethyl)benzyl]-4-(4-fluorophenyl)-6,7-dihydro-N, 6-dimethyl-7-oxo-5-thieno[2,3-c]pyridinecarboxamide]",0.08,,76.1
"CN(Cc1cc(C(F)(F)F)cc(C(F)(F)F)c1)C(=O)c1c(-c2ccc(F)cc2)c2sccc2c(=O)n1C [Example 17, N-[3,5-Bis(trifluoromethyl)benzyl]-7-(4-fluorophenyl)-4,5-dihydro-N, 5-dimethyl-4-oxo-6-thieno[3,2-c]pyridinecarboxamide]",0.31,,51.5
"Cc1ccccc1-c1c2c(c(=O)n(C)c1C(=O)N(C)Cc1cc(C(F)(F)F)cc(C(F)(F)F)c1)CCCN2 [Example 26, N-[3,5-Bis(trifluoromethyl)benzyl]-1,2,3,4,5,6-hexahydro-N, 6-dimethyl-8-(2-methylphenyl)-5-oxo-7-pyrido[4,3-b]pyridinecarboxamide]",0.05,46.2,
"CN(Cc1cc(C(F)(F)F)cc(C(F)(F)F)c1)C(=O)c1c(-c2ccc(F)cc2)c2c(c(=O)n1C)CCCN2 [Example 27, N-[3,5-Bis(trifluoromethyl)benzyl]-8-(4-fluorophenyl)-1,2,3,4,5,6-hexahydro-N, 6-dimethyl-5-oxo-7-pyrido[4,3-b]pyridinecarboxamide]",0.18,,74
"CN(Cc1cc(C(F)(F)F)cc(C(F)(F)F)c1)C(=O)c1c(-c2ccccc2)c2cccnc2c(=O)n1C [Example 36, N-[3,5-Bis(trifluoromethyl)benzyl]-7,8-dihydro-N, 7-dimethyl-8-oxo-5-phenyl-6-pyrido[3,4-b]pyridinecarboxamide]",0.34,54.3,
"CN(Cc1cc(C(F)(F)F)cc(C(F)(F)F)c1)C(=O)c1c(-c2ccc(F)cc2)c2ccn(C)c2c(=O)n1C [Example 39, N-[3,5-Bis(trifluoromethyl)benzyl]-4-(4-fluorophenyl)-6,7-dihydro-N,1,6-trimethyl-7-oxo-5-pyrrolo[2,3-c]pyridinecarboxamide]",0.28,,67.9
"CN(Cc1cc(C(F)(F)F)cc(C(F)(F)F)c1)C(=O)c1c(-c2ccc(F)cc2)c2scnc2c(=O)n1C [Example 41, N-[3,5-Bis(trifluoromethyl)benzyl]-7-(4-fluorophenyl)-4,5-dihydro-N, 5-dimethyl-4-oxo-6-thiazolo[4,5-c]pyridinecarboxamide]",1.1,,46.9
"COc1ccccc1CN(C)C(=O)c1c(-c2ccccc2)c2ccsc2c(=O)n1C [Example 46, 6,7-Dihydro-N-(2-methoxybenzyl)-N, 6-dimethyl-7-oxo-4-phenyl-5-thieno[2,3-c]pyridinecarboxamide]",26,,
"Cc1ccccc1-c1c(C(=O)N(C)Cc2cc(C(F)(F)F)cc(C(F)(F)F)c2)n(C)c(=O)c2sccc12 [Example 47, N-[3,5-Bis(trifluoromethyl)benzyl]-6,7-dihydro-N, 6-dimethyl-4-(2-methylphenyl)-7-oxo-5-thieno[2,3-c]pyridinecarboxamide]",0.2,,
"CN(Cc1cc(C(F)(F)F)cc(C(F)(F)F)c1)C(=O)c1c(-c2ccccc2)c2c(c(=O)n1C)N(C)CCC2 [Example 49, N-[3,5-Bis(trifluoromethyl)benzyl]-1,2,3,4,7,8-hexahydro-5-phenyl-N,1,7-trimethyl-8-oxo-6-pyrido[3,4-b]pyridinecarboxamide]",1.3,,66.7
"CN1CCc2c(-c3ccccc3)c(C(=O)N(C)Cc3cc(C(F)(F)F)cc(C(F)(F)F)c3)n(C)c(=O)c2C1 [Example 50, N-[3,5-Bis(trifluoromethyl)benzyl]-1,2,5,6,7,8-hexahydro-N,2,7-trimethyl-1-oxo-4-phenyl-3-pyrido[3,4-c]pyridinecarboxamide]",0.4,,52.2
CN(Cc1cc(C(F)(F)F)cc(C(F)(F)F)c1)C(=O)c1c(-c2ccccc2)c2c(c(=O)n1C)CCCN2 [Example 51],2.1,,
"CN(Cc1cc(C(F)(F)F)cc(C(F)(F)F)c1)C(=O)c1c(-c2ccc(F)cc2)c2c(c(=O)n1C)CNCC2 [Example 53, N-[3,5-Bis(trifluoromethyl)benzyl]-4-(4-fluorophenyl)-1,2,5,6,7,8-hexahydro-N,2-dimethyl-1-oxo-3-pyrido[3,4-c]pyridinecarboxamide]",0.15,,59.9
"CN(Cc1cc(C(F)(F)F)cc(C(F)(F)F)c1)C(=O)c1c(-c2ccccc2)c2c(c(=O)n1C)CNCC2 [Example 54, N-[3,5-Bis(trifluoromethyl)benzyl]-1,2,5,6,7,8-hexahydro-N,2-dimethyl-1-oxo-4-phenyl-3-pyrido[3,4-c]pyridinecarboxamide]",0.4,,48.3
"CN(Cc1cc(C(F)(F)F)cc(C(F)(F)F)c1)C(=O)c1c(-c2ccccc2)c2c(c(=O)n1C)NCCC2 [Example 55, N-[3,5-Bis(trifluoromethyl)benzyl]-1,2,3,4,7,8-hexahydro-5-phenyl-N,7-dimethyl-8-oxo-6-pyrido[3,4-b]pyridinecarboxamide]",0.7,,
"Cc1ccc(-c2c(C(=O)N(C)Cc3cc(C(F)(F)F)cc(C(F)(F)F)c3)n(C)c(=O)c3ncccc23)cc1 [Example 56, N-[3,5-Bis(trifluoromethyl)benzyl]-7,8-dihydro-N, 7-dimethyl-5-(4-methylphenyl)-8-oxo-6-pyrido[3,4-b]pyridinecarboxamide]",0.34,58.1,
"COc1ccc(-c2c(C(=O)N(C)Cc3cc(C(F)(F)F)cc(C(F)(F)F)c3)n(C)c(=O)c3ncccc23)cc1 [Example 57, N-[3,5-Bis(trifluoromethyl)benzyl]-7,8-dihydro-5-(4-methoxyphenyl)-N,7-dimethyl-8-oxo-6-pyrido[3,4-b]pyridinecarboxamide]",3.8,,51.4
"N-[3,5-Bis(trifluoromethyl)benzyl]-5-(chloro-2-methylphenyl)-7,8-dihydro-N,7-dimethyl-8-oxo-6-pyrido[3,4-b]pyridinecarboxamide and its isomer [Example 11]",0.2,,
